Laboratory results: ChEMBL document CHEMBL4390652, “Design, biological evaluation and X-ray crystallography of nanomolar multifunctional ligands targeting simultaneously acetylcholinesterase and glycogen synthase kinase-3” (Eur J Med Chem, 2019)

How the values were obtained:
[1] = target: Ribosomal protein S6 kinase alpha-2 (Homo sapiens) (UniProt Q15349); assay: Binding affinity to wild-type human partial length C-terminal RSK3 kinase domain 2 (V403 to K700 residues) expressed in bacterial expression system assessed as residual binding level at 10 uM by Kinomescan method relative to control
Sequence of Ribosomal protein S6 kinase alpha-2 (Homo sapiens) (Q15349 whole entry, the tested form may be a part): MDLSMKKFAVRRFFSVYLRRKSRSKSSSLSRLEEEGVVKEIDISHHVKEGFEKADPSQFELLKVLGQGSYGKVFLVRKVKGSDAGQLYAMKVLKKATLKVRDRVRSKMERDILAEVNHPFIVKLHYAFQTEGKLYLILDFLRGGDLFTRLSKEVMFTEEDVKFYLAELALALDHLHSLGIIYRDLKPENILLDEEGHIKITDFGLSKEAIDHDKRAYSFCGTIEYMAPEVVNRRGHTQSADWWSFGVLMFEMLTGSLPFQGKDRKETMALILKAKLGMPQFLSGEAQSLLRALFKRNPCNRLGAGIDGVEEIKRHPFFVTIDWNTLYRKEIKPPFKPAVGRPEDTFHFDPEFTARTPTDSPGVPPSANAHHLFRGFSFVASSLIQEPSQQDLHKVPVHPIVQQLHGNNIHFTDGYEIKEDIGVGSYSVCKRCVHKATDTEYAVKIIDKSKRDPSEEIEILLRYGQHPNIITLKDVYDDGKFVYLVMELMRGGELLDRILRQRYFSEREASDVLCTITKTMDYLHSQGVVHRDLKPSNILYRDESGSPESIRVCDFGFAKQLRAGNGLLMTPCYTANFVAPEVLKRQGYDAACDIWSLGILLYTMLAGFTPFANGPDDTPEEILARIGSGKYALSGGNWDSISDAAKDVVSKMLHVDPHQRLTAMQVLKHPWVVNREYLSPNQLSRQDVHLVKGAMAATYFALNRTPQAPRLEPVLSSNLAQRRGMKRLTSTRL

[2] = target: Insulin receptor (Homo sapiens) (UniProt P06213); assay: Binding affinity to wild-type human partial length INSR (P997 to E1318 residues) expressed in mammalian expression system assessed as residual binding level at 10 uM by Kinomescan method relative to control
[3] = target: Atypical kinase COQ8A, mitochondrial (Homo sapiens) (UniProt Q8NI60); assay: Binding affinity to wild-type human full length ADCK3 (M280 to Q647 residues) expressed in bacterial expression system assessed as residual binding level at 10 uM by Kinomescan method relative to control
[4] = target: Protein-tyrosine kinase 6 (Homo sapiens) (UniProt Q13882); assay: Binding affinity to wild-type human partial length BRK (L166 to T451 residues) expressed in bacterial expression system assessed as residual binding level at 10 uM by Kinomescan method relative to control
[5] = target: G protein-coupled receptor kinase 3 (Homo sapiens) (UniProt P35626); assay: Binding affinity to wild-type human full length GRK3 (M1 to L688 residues) expressed in mammalian expression system assessed as residual binding level at 10 uM by Kinomescan method relative to control
[6] = target: Tyrosine-protein kinase FRK (Homo sapiens) (UniProt P42685); assay: Binding affinity to wild-type human partial length FRK (A215 to F503 residues) expressed in bacterial expression system assessed as residual binding level at 10 uM by Kinomescan method relative to control
[7] = target: Serine/threonine-protein kinase Sgk1 (Homo sapiens) (UniProt O00141); assay: Binding affinity to wild-type human partial length SGK (I60 to L431 residues) expressed in mammalian expression system assessed as residual binding level at 10 uM by Kinomescan method relative to control
[8] = system: Phosphatidylinositol 4,5-bisphosphate 3-kinase catalytic subunit alpha isoform (Homo sapiens), P42336 [H1047L]; assay: Binding affinity to human partial length PIK3CA H1047L mutant (R108 to N1068 residues) expressed in mammalian expression system assessed as residual binding level at 10 uM by Kinomescan method relative to control
[9] = target: Interleukin-1 receptor-associated kinase 3 (Homo sapiens) (UniProt Q9Y616); assay: Binding affinity to wild-type human partial length IRAK3 (V147 to E596 residues) expressed in bacterial expression system assessed as residual binding level at 10 uM by Kinomescan method relative to control
[10] = system: Proto-oncogene tyrosine-protein kinase receptor Ret (Homo sapiens), P07949 [V804L]; assay: Binding affinity to human partial length RET V804L mutant (E713 to D1014 residues) expressed in bacterial expression system assessed as residual binding level at 10 uM by Kinomescan method relative to control
Sequence of Proto-oncogene tyrosine-protein kinase receptor Ret (Homo sapiens), P07949 [V804L] (P07949 whole entry V804L, the tested form may be a part): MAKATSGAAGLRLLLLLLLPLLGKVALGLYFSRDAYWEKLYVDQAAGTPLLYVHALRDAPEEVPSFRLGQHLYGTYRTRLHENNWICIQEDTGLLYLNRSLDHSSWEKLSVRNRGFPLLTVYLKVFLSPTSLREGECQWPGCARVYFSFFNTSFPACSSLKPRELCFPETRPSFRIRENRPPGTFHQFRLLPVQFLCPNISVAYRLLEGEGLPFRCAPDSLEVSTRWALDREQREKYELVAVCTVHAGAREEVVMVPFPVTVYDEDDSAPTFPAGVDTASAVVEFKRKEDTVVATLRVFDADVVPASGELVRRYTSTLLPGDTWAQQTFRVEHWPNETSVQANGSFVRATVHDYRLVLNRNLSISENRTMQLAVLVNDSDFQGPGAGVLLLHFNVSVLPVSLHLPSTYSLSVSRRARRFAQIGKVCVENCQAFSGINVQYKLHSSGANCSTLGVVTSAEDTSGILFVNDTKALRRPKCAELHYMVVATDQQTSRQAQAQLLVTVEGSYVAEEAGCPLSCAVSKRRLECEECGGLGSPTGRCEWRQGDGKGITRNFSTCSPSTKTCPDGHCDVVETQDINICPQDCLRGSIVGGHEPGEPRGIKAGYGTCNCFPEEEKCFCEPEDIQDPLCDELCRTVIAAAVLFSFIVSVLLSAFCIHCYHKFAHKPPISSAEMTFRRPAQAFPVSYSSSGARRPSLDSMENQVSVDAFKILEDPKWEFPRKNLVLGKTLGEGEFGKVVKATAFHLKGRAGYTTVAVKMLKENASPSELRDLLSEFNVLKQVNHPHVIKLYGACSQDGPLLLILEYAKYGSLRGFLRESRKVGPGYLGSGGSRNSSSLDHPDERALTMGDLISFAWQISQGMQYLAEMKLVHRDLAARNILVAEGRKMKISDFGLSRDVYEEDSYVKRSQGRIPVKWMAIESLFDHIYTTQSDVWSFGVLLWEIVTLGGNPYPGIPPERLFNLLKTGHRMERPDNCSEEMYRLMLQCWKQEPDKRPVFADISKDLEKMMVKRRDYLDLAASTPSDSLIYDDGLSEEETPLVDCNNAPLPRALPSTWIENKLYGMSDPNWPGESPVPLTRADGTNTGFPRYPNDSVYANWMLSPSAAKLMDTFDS

[11] = target: Cyclin-dependent kinase 8 (Homo sapiens) (UniProt P49336); assay: Binding affinity to wild-type human partial length CDK8 (M1 to T360 residues) expressed in bacterial expression system assessed as residual binding level at 10 uM by Kinomescan method relative to control
[12] = target: Ribosomal protein S6 kinase alpha-2 (Homo sapiens) (UniProt Q15349); assay: Binding affinity to wild-type human partial length N-terminal RSK3 kinase domain 1 (M1 to Q385 residues) expressed in bacterial expression system assessed as residual binding level at 10 uM by Kinomescan method relative to control
[13] = target: Death-associated protein kinase 1 (Homo sapiens) (UniProt P53355); assay: Binding affinity to wild-type human partial length DAPK1 (M1 to F296 residues) expressed in bacterial expression system assessed as residual binding level at 10 uM by Kinomescan method relative to control
[14] = target: Aurora kinase B (Homo sapiens) (UniProt Q96GD4); assay: Binding affinity to wild-type human partial length AURKB (D25 to A303 residues) expressed in mammalian expression system assessed as residual binding level at 10 uM by Kinomescan method relative to control
Sequence of Aurora kinase B (Homo sapiens) (Q96GD4 whole entry, the tested form may be a part): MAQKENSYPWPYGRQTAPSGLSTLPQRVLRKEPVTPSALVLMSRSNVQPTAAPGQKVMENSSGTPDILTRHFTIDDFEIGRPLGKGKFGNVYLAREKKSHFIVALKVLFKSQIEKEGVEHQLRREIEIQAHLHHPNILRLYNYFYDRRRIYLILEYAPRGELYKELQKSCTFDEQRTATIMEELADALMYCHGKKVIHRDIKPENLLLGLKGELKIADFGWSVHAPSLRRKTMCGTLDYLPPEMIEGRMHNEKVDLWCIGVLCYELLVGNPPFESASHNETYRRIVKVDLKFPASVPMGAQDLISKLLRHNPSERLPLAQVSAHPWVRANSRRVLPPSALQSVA

[15] = target: TGF-beta receptor type-1 (Homo sapiens) (UniProt P36897); assay: Binding affinity to wild-type human partial length TGFBR1 (D179 to M503 residues) expressed in bacterial expression system assessed as residual binding level at 10 uM by Kinomescan method relative to control
Sequence of TGF-beta receptor type-1 (Homo sapiens) (P36897 whole entry, the tested form may be a part): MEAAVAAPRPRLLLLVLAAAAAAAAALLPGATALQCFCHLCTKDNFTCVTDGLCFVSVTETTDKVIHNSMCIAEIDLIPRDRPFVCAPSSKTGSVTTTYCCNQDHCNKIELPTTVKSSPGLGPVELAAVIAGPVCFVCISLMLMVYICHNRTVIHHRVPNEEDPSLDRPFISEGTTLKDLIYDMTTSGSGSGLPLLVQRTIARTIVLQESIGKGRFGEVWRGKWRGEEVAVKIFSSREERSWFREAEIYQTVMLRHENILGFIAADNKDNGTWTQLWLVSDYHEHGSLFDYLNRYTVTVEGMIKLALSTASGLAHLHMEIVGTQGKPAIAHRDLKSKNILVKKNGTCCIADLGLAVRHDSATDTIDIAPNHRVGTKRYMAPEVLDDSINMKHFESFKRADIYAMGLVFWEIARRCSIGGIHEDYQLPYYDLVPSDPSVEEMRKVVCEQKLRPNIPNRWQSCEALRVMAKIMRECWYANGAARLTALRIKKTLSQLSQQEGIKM

[16] = target: Serine/threonine-protein kinase PLK4 (Homo sapiens) (UniProt O00444); assay: Binding affinity to wild-type human partial length PLK4 (M1 to S273 residues) expressed in mammalian expression system assessed as residual binding level at 10 uM by Kinomescan method relative to control
[17] = target: Non-receptor tyrosine-protein kinase TYK2 (Homo sapiens) (UniProt P29597); assay: Binding affinity to wild-type human partial length TYK2 JH1 catalytic domain (V877 to C1187 residues) expressed in mammalian expression system assessed as residual binding level at 10 uM by Kinomescan method relative to control
Sequence of Non-receptor tyrosine-protein kinase TYK2 (Homo sapiens) (P29597 whole entry, the tested form may be a part): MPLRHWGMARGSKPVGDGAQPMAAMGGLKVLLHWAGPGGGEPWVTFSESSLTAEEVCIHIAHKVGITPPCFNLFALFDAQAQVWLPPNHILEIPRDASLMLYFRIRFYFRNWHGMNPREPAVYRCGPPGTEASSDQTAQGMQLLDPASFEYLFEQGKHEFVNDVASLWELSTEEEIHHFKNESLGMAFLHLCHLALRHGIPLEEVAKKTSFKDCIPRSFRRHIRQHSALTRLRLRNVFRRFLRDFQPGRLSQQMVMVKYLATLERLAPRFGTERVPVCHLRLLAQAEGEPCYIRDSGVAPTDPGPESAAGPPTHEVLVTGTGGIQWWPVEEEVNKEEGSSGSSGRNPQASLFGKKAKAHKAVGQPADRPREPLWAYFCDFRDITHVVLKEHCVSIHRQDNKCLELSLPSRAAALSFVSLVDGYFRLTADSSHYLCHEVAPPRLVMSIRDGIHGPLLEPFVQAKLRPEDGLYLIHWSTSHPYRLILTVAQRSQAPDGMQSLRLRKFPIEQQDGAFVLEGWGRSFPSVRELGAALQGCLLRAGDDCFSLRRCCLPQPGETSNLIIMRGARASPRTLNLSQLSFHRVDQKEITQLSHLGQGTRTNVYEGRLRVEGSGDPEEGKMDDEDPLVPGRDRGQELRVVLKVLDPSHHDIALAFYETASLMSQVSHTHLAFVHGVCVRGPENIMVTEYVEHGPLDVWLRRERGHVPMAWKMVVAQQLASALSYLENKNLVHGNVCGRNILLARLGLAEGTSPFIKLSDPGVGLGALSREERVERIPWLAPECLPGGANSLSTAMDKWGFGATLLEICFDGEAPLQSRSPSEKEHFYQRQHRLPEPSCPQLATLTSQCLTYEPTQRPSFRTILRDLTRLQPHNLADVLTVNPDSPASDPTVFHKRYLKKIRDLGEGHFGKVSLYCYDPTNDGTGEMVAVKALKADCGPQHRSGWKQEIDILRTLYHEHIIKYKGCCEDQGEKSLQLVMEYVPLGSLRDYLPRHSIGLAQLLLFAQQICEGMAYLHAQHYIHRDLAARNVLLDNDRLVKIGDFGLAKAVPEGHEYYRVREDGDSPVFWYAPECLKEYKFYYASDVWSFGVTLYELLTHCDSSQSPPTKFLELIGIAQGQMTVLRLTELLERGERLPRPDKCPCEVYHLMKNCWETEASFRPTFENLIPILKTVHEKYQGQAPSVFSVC

[18] = target: Calcium/calmodulin-dependent protein kinase type 1D (Homo sapiens) (UniProt Q8IU85); assay: Binding affinity to wild-type human partial length CAMK1D (M1 to K299 residues) expressed in bacterial expression system assessed as residual binding level at 10 uM by Kinomescan method relative to control
[19] = target: Serine/threonine-protein kinase D1 (Homo sapiens) (UniProt Q15139); assay: Binding affinity to wild-type human partial length PRKD1 (G551 to E870 residues) expressed in bacterial expression system assessed as residual binding level at 10 uM by Kinomescan method relative to control
Sequence of Serine/threonine-protein kinase D1 (Homo sapiens) (Q15139 whole entry, the tested form may be a part): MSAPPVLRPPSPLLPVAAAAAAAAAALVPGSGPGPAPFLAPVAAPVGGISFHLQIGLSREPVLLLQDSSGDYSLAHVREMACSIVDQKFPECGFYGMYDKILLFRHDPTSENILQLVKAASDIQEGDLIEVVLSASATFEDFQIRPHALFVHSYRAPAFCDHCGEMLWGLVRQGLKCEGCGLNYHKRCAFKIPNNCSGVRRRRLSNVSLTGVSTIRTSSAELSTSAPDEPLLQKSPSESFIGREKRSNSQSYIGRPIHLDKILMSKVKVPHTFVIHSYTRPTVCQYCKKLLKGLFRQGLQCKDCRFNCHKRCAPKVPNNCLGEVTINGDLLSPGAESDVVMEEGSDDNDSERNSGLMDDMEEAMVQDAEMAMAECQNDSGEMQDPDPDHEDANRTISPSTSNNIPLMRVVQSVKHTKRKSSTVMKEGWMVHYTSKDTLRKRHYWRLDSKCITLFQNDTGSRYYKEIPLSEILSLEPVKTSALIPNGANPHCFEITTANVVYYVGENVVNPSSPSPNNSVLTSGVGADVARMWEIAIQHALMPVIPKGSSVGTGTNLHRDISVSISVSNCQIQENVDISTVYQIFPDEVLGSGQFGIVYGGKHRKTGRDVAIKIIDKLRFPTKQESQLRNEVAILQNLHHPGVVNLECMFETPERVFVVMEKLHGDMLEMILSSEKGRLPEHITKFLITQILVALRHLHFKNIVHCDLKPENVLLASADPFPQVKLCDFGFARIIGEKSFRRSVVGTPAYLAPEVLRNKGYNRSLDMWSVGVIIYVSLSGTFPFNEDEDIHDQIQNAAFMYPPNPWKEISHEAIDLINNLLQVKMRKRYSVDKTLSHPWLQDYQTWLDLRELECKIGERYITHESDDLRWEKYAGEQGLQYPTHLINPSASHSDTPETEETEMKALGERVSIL

[20] = target: Activin receptor type-1B (Homo sapiens) (UniProt P36896); assay: Binding affinity to wild-type human ACVR1B (S187 to I505 residues) expressed in bacterial expression system assessed as residual binding level at 10 uM by Kinomescan method relative to control
[21] = target: Maternal embryonic leucine zipper kinase (Homo sapiens) (UniProt Q14680); assay: Binding affinity to wild-type human full length MELK (M1 to V651 residues) expressed in bacterial expression system assessed as residual binding level at 10 uM by Kinomescan method relative to control
[22] = target: Serine/threonine-protein kinase NIM1 (Homo sapiens) (UniProt Q8IY84); assay: Binding affinity to wild-type human partial length NIM1 (Q44 to N355 residues) expressed in mammalian expression system assessed as residual binding level at 10 uM by Kinomescan method relative to control
[23] = target: Glycogen synthase kinase-3 beta (Homo sapiens) (UniProt P49841); assay: Binding affinity to wild-type human full length GSK3B (M1 to T433 residues) expressed in mammalian expression system assessed as residual binding level at 10 uM by Kinomescan method relative to control
NCI-H727 = assay: Cytotoxicity against human NCI-H727 cells assessed as growth inhibition incubated for 48 hrs by Hoechst 33342 staining based assay; format: cell-based; settings: NCI-H727, 48 h
[24] = target: LIM domain kinase 1 (Homo sapiens) (UniProt P53667); assay: Binding affinity to wild-type human full length LIMK1 (M1 to D647 residues) expressed in bacterial expression system assessed as residual binding level at 10 uM by Kinomescan method relative to control

In the case of `O=C(Nc1cc(-c2cn(CCNc3c4c(nc5ccccc35)CCCC4)nn2)ccn1)Nc1cccc2c1C1CCCCN1C2=O` (racemic), the Activity [1] is reported as 74%, the Activity [2] is reported as 17% and the Activity [3] is reported as 40%. For the same compound, the Activity [4] was 90%, the Activity [5] was 100% and the Activity [6] was 99%. It also gave an Activity [7] of 0.3%, an Activity [8] of 93% and an Activity [9] of 16%. For the same compound, the Activity [10] was 16%, the Activity [11] was 64% and the Activity [12] was 7.1%. The Activity [13] was 68%, the Activity [14] was 5.6% and the Activity [15] was 74%. It also gave an Activity [16] of 100%, an Activity [17] of 39% and an Activity [18] of 48%. The Activity [19] was 24%, the Activity [20] was 67% and the Activity [21] was 14%. For the same compound, the Activity [22] was 83%, the Activity [23] was 17% and the IC50 (NCI-H727) was 2 µM. It also gave an Activity [24] of 100%.
